Experimental data taken from patent US8926966B1 (Regents of the University of California, priority 1990, dated 2015).

System: IDDM associated autoantibodies in sera
Test: ELISA of sera on plate-bound human GAD65 peptides
Format: binding
Conditions: for number of IDDM (at risk, pre-IDDM, at onset) patients positive (X) for the peptide (unlabelled sum line): IDDM sera of Table 11
Procedure: Patient sera and most control sera were those used in a previous study (Kaufman, et al., J. Clin. Investigation, supra) All samples were coded and tested in a blind manner. Peptides were synthesized using an automatic instrument (Applied Biosystems, Foster City, Calif.) and standard conditions. Peptides were dissolved in 60 mM sodium bicarbonate buffer (pH 9.6) at 20 ug/ml and 100 ul of each was added to duplicated wells of a 96 well Nunc-Immuno Plate. Peptides were allowed to bind at 4° C. overnight. The plates were then washed three times with PBS+0.1% Tween 20 (wash buffer), after which the plates were pre-absorbed with 3% BSA in sodium bicarbonate buffer for 0.5 hours at 37° C., or at room temperature overnight. The plates were then washed 5 times with the above wash buffer. 100 ul of serum at a 1/300 dilution in PBS+0.1% Tween 20 and 1% BSA was added to each well and antibodies were allowed to bind for 1 hour at 37° C. The plates were washed 5 times with wash buffer. 100 ul of a 1/600 dilution of HRP-goat anti-human IgG (BRL, Gaithersberg, Md.) was added to each well and allowed to bind for 1 hour at 37° C. The plates were then washed 7 times and 100 ul of substrate buffer was added to each well for 30 minutes at room temperature. The color development was measured at 410 nm using an ELISA plate reader (ICN, Biomedicals, Costa Mesa, Calif.). Positive sera were defined as: OD410 of the sample/negative control ≧3.0.

[1] = IDDM At Onset serum 048, 1/300 dilution
[2] = IDDM At Onset serum 705, 1/300 dilution
[3] = IDDM At Risk serum 052, 1/300 dilution
[4] = IDDM At Risk serum 356, 1/300 dilution
[5] = Pre-IDDM serum 723, 1/300 dilution
[6] = Pre-IDDM serum P.T. (1), 1/300 dilution
[7] = Pre-IDDM serum P.T. (2), 1/300 dilution
[8] = Pre-IDDM serum R.S. (1), 1/300 dilution
[9] = Pre-IDDM serum R.S. (2), 1/300 dilution
[10] = control serum 4380, 1/300 dilution
[11] = control serum 5620, 1/300 dilution
[12] = control serum 5748, 1/300 dilution
[13] = control serum A.P., 1/300 dilution
[14] = control serum S.M., 1/300 dilution

Sequence	immunoreactivity by both control and patient sera	immunoreactivity of serum with GAD65 peptide [1]	immunoreactivity of serum with GAD65 peptide [2]	immunoreactivity of serum with GAD65 peptide [3]	immunoreactivity of serum with GAD65 peptide [4]	immunoreactivity of serum with GAD65 peptide [5]	immunoreactivity of serum with GAD65 peptide [6]	immunoreactivity of serum with GAD65 peptide [7]	immunoreactivity of serum with GAD65 peptide [8]	immunoreactivity of serum with GAD65 peptide [9]	immunoreactivity of serum with GAD65 peptide [10]	immunoreactivity of serum with GAD65 peptide [11]	immunoreactivity of serum with GAD65 peptide [12]	immunoreactivity of serum with GAD65 peptide [13]	immunoreactivity of serum with GAD65 peptide [14]	number of IDDM (at risk, pre-IDDM, at onset) patients positive (X) for the peptide (unlabelled sum line)	other results
QPPRAAARKAACACDQKPCSC [Peptide 5]	often positive	X (X = positive for immunoreactivity as defined by 00/background^3.0)	X (X = positive for immunoreactivity as defined by 00/background^3.0)	X (X = positive for immunoreactivity as defined by 00/background^3.0)	X (X = positive for immunoreactivity as defined by 00/background^3.0)	X (X = positive for immunoreactivity as defined by 00/background^3.0)	X (X = positive for immunoreactivity as defined by 00/background^3.0)	X (X = positive for immunoreactivity as defined by 00/background^3.0)	X (X = positive for immunoreactivity as defined by 00/background^3.0)	X (X = positive for immunoreactivity as defined by 00/background^3.0)	X (X = positive for immunoreactivity as defined by 00/background^3.0)	X (X = positive for immunoreactivity as defined by 00/background^3.0)	X (X = positive for immunoreactivity as defined by 00/background^3.0)	X (X = positive for immunoreactivity as defined by 00/background^3.0)	X (X = positive for immunoreactivity as defined by 00/background^3.0)		immunoreactivity of serum with GAD65 peptide (IDDM At Onset serum 291, 1/300 dilution): X (X = positive for immunoreactivity as defined by 00/background^3.0); immunoreactivity of serum with GAD65 peptide (IDDM At Onset serum S.H., 1/300 dilution): X (X = positive for immunoreactivity as defined by 00/background^3.0); immunoreactivity of serum with GAD65 peptide (IDDM At Risk serum 825, 1/300 dilution): X (X = positive for immunoreactivity as defined by 00/background^3.0); immunoreactivity of serum with GAD65 peptide (IDDM At Risk serum L.I., 1/300 dilution): X (X = positive for immunoreactivity as defined by 00/background^3.0); immunoreactivity of serum with GAD65 peptide (Pre-IDDM serum B.Y. (1), 1/300 dilution): X (X = positive for immunoreactivity as defined by 00/background^3.0); immunoreactivity of serum with GAD65 peptide (Pre-IDDM serum B.Y. (2), 1/300 dilution): X (X = positive for immunoreactivity as defined by 00/background^3.0); immunoreactivity of serum with GAD65 peptide (Pre-IDDM serum J.A., 1/300 dilution): X (X = positive for immunoreactivity as defined by 00/background^3.0); immunoreactivity of serum with GAD65 peptide (Pre-IDDM serum J.B. (1), 1/300 dilution): b (b = borderline response (00/background ?2.5-2.9).); immunoreactivity of serum with GAD65 peptide (Pre-IDDM serum J.B. (2), 1/300 dilution): X (X = positive for immunoreactivity as defined by 00/background^3.0); immunoreactivity of serum with GAD65 peptide (control serum 1688, 1/300 dilution): b (b = borderline response (00/background ?2.5-2.9).); immunoreactivity of serum with GAD65 peptide (control serum FA2, 1/300 dilution): X (X = positive for immunoreactivity as defined by 00/background^3.0); immunoreactivity of serum with GAD65 peptide (control serum FA9, 1/300 dilution): X (X = positive for immunoreactivity as defined by 00/background^3.0); immunoreactivity of serum with GAD65 peptide (control serum FA11, 1/300 dilution): X (X = positive for immunoreactivity as defined by 00/background^3.0); immunoreactivity of serum with GAD65 peptide (control serum H.B., 1/300 dilution): b (b = borderline response (00/background ?2.5-2.9).); immunoreactivity of serum with GAD65 peptide (control serum P.T., 1/300 dilution): X (X = positive for immunoreactivity as defined by 00/background^3.0)
SFDRSTKVIDFHYPNELLQE [Peptide 9]	often positive	X (X = positive for immunoreactivity as defined by 00/background^3.0)		b (b = borderline response (00/background ?2.5-2.9).)	X (X = positive for immunoreactivity as defined by 00/background^3.0)	X (X = positive for immunoreactivity as defined by 00/background^3.0)	b (b = borderline response (00/background ?2.5-2.9).)	b (b = borderline response (00/background ?2.5-2.9).)	b (b = borderline response (00/background ?2.5-2.9).)	b (b = borderline response (00/background ?2.5-2.9).)	b (b = borderline response (00/background ?2.5-2.9).)	b (b = borderline response (00/background ?2.5-2.9).)	b (b = borderline response (00/background ?2.5-2.9).)	X (X = positive for immunoreactivity as defined by 00/background^3.0)	X (X = positive for immunoreactivity as defined by 00/background^3.0)	3	number of control sera positive (X) for the peptide (unlabelled sum line) (13 control sera): 2
TNMFTYEIAPVFVLLEYVTL [Peptide 14]				b (b = borderline response (00/background ?2.5-2.9).)													
VNFFRMVISNPAATHQDIDF [Peptide 37]			X (X = positive for immunoreactivity as defined by 00/background^3.0)			X (X = positive for immunoreactivity as defined by 00/background^3.0)										2	
VPLQCSALLVREEGLMQNCNQ [Peptide 27]															b (b = borderline response (00/background ?2.5-2.9).)		
